The subject of data set [1] is total endogenous MMP activity of dentin (matrix-bound MMPs). It counts as biochemical, human. To be noted: 1.0% w/v aqueous BAC applied for 60 s; relative to untreated control with 0% inhibition; mean (SD), n = 10.
In the next data set the test system is MMP. To be noted: cited from earlier work.
The test system of the next data set is MMP-2. To be noted: cited from earlier work.
A further data set relates to MMP-8. To be noted: cited from earlier work.
For another data set, the system named is MMP-9. To be noted: cited from earlier work.
For data set [2], the system named is demineralized dentin collagen. To be noted: cited from earlier work.
In another data set the test system is soluble MMP-9. To be noted: cited from earlier work.

The text below walks through data of publication PMC4356641 (European journal of oral sciences, 2015).

Values joined by “and” are separate entries in the source; they are usually repeats but may differ in a detail not shown here. Equal values may be shown once.

Consider Benzalkonium chloride [BAC], for which, in data set [1], the “% MMP inhibition (total MMP activity)” value was 54% and 54.2 (9.0) ^C %. Besides, the MMP inhibition in the data set with MMP (1.0% BAC) was 55–66%. Further, the “MMP inhibition relative to 1.0% BAC” value with MMP (2.0% BAC) is recorded as “did not yield additional MMP inhibition”.

With `[H]/N=C(\N/C(=N/[H])NCCCCCCNC(=N)NC(=N)Nc1ccc(Cl)cc1)Nc1ccc(Cl)cc1` [CHX, Chlorhexidine], the “Inhibition of MMP-2” value in the data set on MMP-2 is given as “potent inhibitor”. Also, the “Inhibition of MMP-8” value with MMP-8 is “potent inhibitor”. Also, in the data set with MMP-9, the “Inhibition of MMP-9” value is recorded as “potent inhibitor”.

Take `C=C(C)C(=O)OCCCCCCCCCCCC[n+]1ccccc1.[Br-]` [MDPB, 12-methacryloyloxydodecylpyridinium bromide]: the “Inhibition of degradation of demineralized dentin collagen” value in data set [2] is given as “almost completely inhibited”. Besides, the “Inhibition of soluble MMP-9” value with soluble MMP-9 is recorded as “effectively inhibited soluble MMP-9 as or more effectively as Galardin”.
